Experimental data taken from article PMC7023394, “Cell Penetrating Peptide as a High Safety Anti-Inflammation Ingredient for Cosmetic Applications” (Biomolecules, 2020).
Where no end group is shown, it is not given here.

Columns and labels:
[1] = test system: cysteine- or lysine-containing peptide; assay: In chemico skin sensitization: Direct Peptide Reactivity Assay (DPRA, OECD 442C); conditions: for DPRA Prediction: cysteine 1:10/lysine 1:50 prediction model
Experimental: The direct peptide reactivity assay (DPRA) is an in chemico method which quantified the remaining concentration of cysteine- or lysine-containing peptide after 24 h incubation with the test chemical at 25 °C. Relative peptide concentration was measured by HPLC (Waters, Milford, MA, USA) with gradient elution and UV detection (220 nm). […] This model allowed to classify the test chemical to one of four reactivity classes used to support the discrimination between sensitisers and non-sensitisers.

[2] = test system: Raw264.7 macrophage cells; type: cell-based; conditions: 1 µM
Experimental: In this experiment, macrophage (Raw264.7) cells were seeded in 96-well plates (5 × 10^5 cells/mL) and allowed to attach overnight. After attachment, cells were incubated with various concentrations of CPPAIF for 1 h and followed by stimulation with 1 μg/mL of LPS (lipopolysaccharide). No LPS-added cells were considered as control groups. After incubation, the amount of TNF-α and IL-6 in the medium were analyzed by enzyme linked immunosorbent assay (# KHC3011 and #EH2IL6, Thermo Fisher, Waltham, MA, USA). Cell viability was measured by AlamarBlue cell viability assay (BUF012B, Bio-Rad, Hercules, CA, USA).
Figure 5 Anti-inflammation activity of CPPAIF. Raw264.7 macrophage cells were seeded in 96-well plates (5 × 10^5 cells/mL) and allowed to attach overnight. After attachment, the cells were incubated with various concentrations of CPPAIF for 1 h followed by stimulation with 1 μg/mL of LPS. The control group was not treated with LPS and its cytokine secretion was set as 100% (mock). The amounts of TNFα (A) and IL-6 (B) in the medium were analyzed by ELISA. Cell viability was measured by AlamarBlue cell viability assay. *** p < 0.001 versus the control group.

RBL-2H3 mast cells = assay: Mast cell degranulation assay (β-hexosaminidase release); type: cell-based, rat; conditions: under 10 μM (0, 0.1, 1, 2, 5, 10 μM); PC A23187 set as 100%
Experimental: Inhibitory effects on release of β-hexosaminidase in RBL-2H3 (rat-basophilic leukemia cell line) were evaluated by a cell degranulation assay. Briefly, 0.2 mL of 5 × 10^5 cells/mL RBL-2H3 cells were seed in 24-well plates (in Minimum Essential Medium (MEM) containing 10% Fetal Bovine Serum (FBS), streptomycin (100 µg/mL) and penicillin (100 units/mL)) and sensitized with anti-DNP IgE (0.45 µg/mL). These cells were washed with Siraganian buffer (5 mM KCl, 0.4 mM MgCl2, 119 mM NaCl, 25 mM piperazine-N,N 2-bis(2-ethane sulfonic acid (PIPES), and 40 mM NaOH, pH 7.2) with glucose, 1 mM CaCl2, and 0.1% bovine serum albumin (BSA). After washing, these cell were incubated in 160 µL of the PBS for 10 min at 37 °C and then 20 µL of test sample solution or calcimycin (final 1 mM) was added and further incubated for 10 min. The plate was cooling on ice for 10 min to stop reaction. 50 µL of supernatant was transferred to 96-well plate and added with 50 µL of substrate (1 mM p-nitrophenyl N-acetyl-β-D-glucosaminide) in 0.1 M citrate buffer (pH 4.5) at 37 °C for 2.5 h. The reaction was stopped by adding 200 µL of carbonate-bicarbonate buffer (0.1 M, pH 10.0). The value of A405 was measured with a microplate reader.
Figure 6 Sensitization test of CPPAIF. The sensitization of CPPAIF was evaluated by mast cell degranulation assay. […]

[3] = test system: 3D human epidermis tissue model (SkinEthic RHE); assay: Transepidermal measurement by reconstructed human epidermis tissue model; type: in vitro ADME; conditions: 100 μL containing 100 μM CPPAIF, of exposure (method and legend: 1 h), HPLC, mean ± SD of three
Experimental: 3D human epidermis tissue model (SkinEthic™ RHE, SkinEthics, Lyon, France) and two kinds of CPPAIF-containing emulsion systems (water-in-oil emulsion (W/O) and oil-in-water emulsion (O/W)) were prepared for the transepidermal measurements. […] After treatment liquid beneath the model was collected for HPLC quantification. Transepidermal rate was calculated by measuring the amount of CPPAIF in medium beneath the 3D model by HPLC ((concentration of the beneath liquid/concentration of the topical exposure) × 100).
Figure 8 Transepidermal degree of formulated CPPAIF in SkinEthic^TM RHE model. All 3D reconstructed human epidermis tissues were incubated with growth medium for 2 h, then 0.1 mL formulated CPPAIF (0.1 mM) emulsions were added to the top of the tissues and incubated for 1 h. After treatment the liquid beneath the 3D skin model was collected for HPLC quantification. Transepidermal degree was calculated by measuring the amount of CPPAIF in the liquid beneath the 3D skin model using HPLC. ** p < 0.01 versus the W/O formulation group.

[4] = Stability of CPPAIF in W/O and O/W emulsions (HPLC); type: physicochemical; conditions: 0.1 mM CPPAIF
[5] = test system: SkinEthic RHE 3D reconstructed human epidermis tissue model; assay: In vitro skin irritation test (OECD 439); conditions: 1 mM
HaCaT cells = assay: Internalization of TMR-CPPAIF in human keratinocytes (confocal microscopy); type: cell-based; conditions: 20 µM, 37 °C, 30 min, confocal laser-scanning microscopy
Experimental: Confocal Laser-scanning Microscopy (CLSM, Zeiss Cell Observer-Z1, Baden-Württemberg, Germany) was performed to assess distribution of TMR-labeled CPPAIF (tetramethylrhodamine-[…], synthesized by Kelowna International Scientific, Taipei, Taiwan) in human keratinocytes, HaCaT. First, apply a layer of type I collagen on a glass cover slip, dry and sterilize the cover slip with UV light. Then, culture the HaCaT cells ([…] per slip) on the coverslip for 16 h. The attached HaCaT cells were cultured with 20 μM of the TMR- CPPAIF for 30 min, observed with CLSM (63× oil-immersion objective lens), and photographed under same exposure conditions.
Figure 7 Internalization of TMR-CPPAIF. HaCaT cells (1 × 10^3) were seeded on collagen I coated cover slide and incubated at 37 °C for 16 h. The cells were then incubatd with 20 μM of TMR-CPPAIF at 37 °C for 30 min. After washing and fixing, the cells were mounted and monitored by confocal microscopy. Red: TMR; Blue: nuclear staining with DAPI. (Magnification: 63×).

[6] = test item 100 mM, 24 h, 25 °C, HPLC, UV 220 nm

Compound: OCCOc1ccccc1 [Phenoxyethanol, phenoxyethanol]
- Cysteine Depletion [1, 6]: 1.38%
- Lysine Depletion [1, 6]: −0.25%
- Mean of Cysteine and Lysine % Depletion [1, 6]: 0.56%
- DPRA Prediction ([1]; test item 100 mM): Non-sensitiser

Compound: NYRWRCKNQN [CPPAIF]
- cell viability [2]: 85.2 ± 4.25%
- mast cell degranulation release (β-hexosaminidase) (RBL-2H3 mast cells): did not induce any mast cell degranulation release
- Transepidermal degree ((concentration in the beneath liquid/concentration in the topical exposure) × 100) ([3]; O/W formulation): 28.4 ± 1.7%
- Transepidermal degree ((concentration in the beneath liquid/concentration in the topical exposure) × 100) ([3]; W/O formulation): 41.4 ± 3.6%
- stability of CPPAIF in emulsion compositions [4]: did not influence stability
- DPRA Prediction ([1]; test item 0.1 mM): Non-sensitiser
- skin irritation classification of OECD 439 [5]: did not cause skin irritation (no category)

Compound: tetramethylrhodamine-NYRWRCKNQN [TMR-CPPAIF, tetramethylrhodamine-labeled CPPAIF]
- internalization into cells (TMR signal) (HaCaT cells): internalized into the cells
